Legend:
[1] = test system: healthy middle-aged men and women; test: Rey Auditory-Verbal Learning Test (RAVLT), learning and memory; assay type: in vivo, human; settings: 4 g oral single dose; mean (SD)
Experimental: Procedure: Each participant attended the research facility on a single day for a period of 3.5 hours during which they completed 2 testing sessions, 1 baseline test and 1 post-treatment test. All testing took place between 08:00-12:00 and 13:00-18:00. On testing days, participants abstained from consuming any stimulants (i.e., tea, coffee, other caffeine containing products) for 2 hours before their visit. All volunteers were fasted for 2 hours before their visit. Each study day comprised of a practice module, a pre-treatment baseline testing session on the mood and cognitive measures, this was immediately followed by a pre-treatment blood glucose measurement, and administration of treatment. Participants were allocated, using a random number generator randomization code, to one of three treatment conditions: sucrose (icing sugar), placebo (rice flour) and plant saccharides (Ambrotose®Complex). Given the different densities of the three supplement conditions, each treatment was weighed and measured with scoop amounts to provide equated 4 g doses. The supplement was delivered to each participant on a tablespoon with 100 ml of water. Each participant was instructed by the inventors to carefully consume the powder, without breathing in or out over it, by putting it in their mouth and washing it down with the water provided within 5 minutes. Additional water was provided on request. Participants were then instructed to rest for 30 minutes to allow for absorption. Following the 30 minute absorption time, a finger-capillary blood glucose measurement was taken. The post treatment testing session then commenced with alternate forms of the RAVLT and Cognitive demand battery. Following completion of the testing session, a final blood glucose measurement was taken. […] Learning and Memory: The Rey Auditory-Verbal Learning Test (RAVLT) was used to assess immediate recall, delayed recall, learning and recognition memory. The examiner reads aloud 15 nouns (list A) over five trials and after each trial, participants are asked to recall, in any order, as many of the 15 words as possible. Scores for the 5 trials are summed to produce a measure of immediate recall, the difference between trial 5 and 1 is used as a measure of learning. After a sixth trial consisting of 15 different words (list B) participants are again required to recall the words that were presented in list A (trial 7), and then again after an interval of 60 minutes (trial 8). The scores from trials 7 and 8 are used to produce a measure of delayed recall, the difference between the words recalled in trials 8 and 7 is used as a measure of forgetting, the difference between trial 7 and trial 5 is used as a score of interference. After trial 8, participants are presented with a sheet of 50 words containing the words from lists A and B among 20 distracter words. Participants are asked to recognize the words from lists A and B and indicate the list they came from. Each word correctly identified is awarded one point producing a measure of recognition. Statistical Analysis: The primary outcomes were memory performance, mood and performance on the Cognitive Demand Battery (CDB) and the subjective ratings of mental fatigue. All data were analyzed using SPSS 17 statistical package as “change from pre dose baseline scores', using Analysis of Variance (ANOVA). To test for chance baseline differences which may have skewed change-from-baseline scores, prior to the primary statistical analysis, one-way ANOVA's with Bonferroni correction, were run all on all baseline demographics, general mood and well-being measures, and all pre-dose baseline measures to determine any potential covariates in outcomes.

[2] = test system: healthy middle-aged men and women; test: Cognitive Demand Battery: Serial Sevens subtraction task; assay type: in vivo, human; settings: 4 g oral; at 20 min of battery; vs placebo
Experimental: Procedure: Each participant attended the research facility on a single day for a period of 3.5 hours during which they completed 2 testing sessions, 1 baseline test and 1 post-treatment test. All testing took place between 08:00-12:00 and 13:00-18:00. On testing days, participants abstained from consuming any stimulants (i.e., tea, coffee, other caffeine containing products) for 2 hours before their visit. All volunteers were fasted for 2 hours before their visit. Each study day comprised of a practice module, a pre-treatment baseline testing session on the mood and cognitive measures, this was immediately followed by a pre-treatment blood glucose measurement, and administration of treatment. Participants were allocated, using a random number generator randomization code, to one of three treatment conditions: sucrose (icing sugar), placebo (rice flour) and plant saccharides (Ambrotose®Complex). Given the different densities of the three supplement conditions, each treatment was weighed and measured with scoop amounts to provide equated 4 g doses. The supplement was delivered to each participant on a tablespoon with 100 ml of water. […] All data were analyzed using SPSS 17 statistical package as “change from pre dose baseline scores', using Analysis of Variance (ANOVA). […]

OC[C@H]1O[C@@](CO)(O[C@H]2O[C@H](CO)[C@@H](O)[C@H](O)[C@H]2O)[C@@H](O)[C@@H]1O [Sucrose, sucrose]
RAVLT Forgetting (trial 8-trial7), post-dose change from baseline score [1]: −1.69 (3.06)
RAVLT Interference (trial 7-trial 5), post-dose change from baseline score [1]: −1.34 (2.18)
RAVLT Learning (trial 5-trial1), post-dose change from baseline score [1]: 0.07 (2.78)
RAVLT Recog A, post-dose change from baseline score [1]: −2.38 (2.46)
RAVLT Recog B, post-dose change from baseline score [1]: −3.38 (3.55)
RAVLT Sum Immediate Recall, post-dose change from baseline score [1]: −1.88 (5.83)
RAVLT Sum Recognition, post-dose change from baseline score [1]: −5.76 (4.91)
RAVLT Sum delayed recall, post-dose change from baseline score [1]: −4.76 (4.18)
RAVLT Trial 1, post-dose change from baseline score [1]: −0.26 (2.23)
RAVLT Trial 2, post-dose change from baseline score [1]: −0.57 (2.13)
RAVLT Trial 3, post-dose change from baseline score [1]: −0.42 (1.83)
RAVLT Trial4, post-dose change from baseline score [1]: −0.42 (1.72)
RAVLT Trial 5, post-dose change from baseline score [1]: −0.19 (1.72)
RAVLT Trial 6 (List B), post-dose change from baseline score [1]: −0.84 (2.16)
RAVLT Trial 7, post-dose change from baseline score [1]: −1.53 (2.37)
RAVLT Trial 8, post-dose change from baseline score [1]: −3.23 (2.80)
Serial 7s number of correct answers, pairwise comparison [2]: making significantly more correct responses than the placebo group (p=0.04)
